In patent EP4610269A1, “UROKINASE PLASMINOGEN ACTIVATOR SURFACE RECEPTOR (UPAR) LIGANDS FOR DIAGNOSTIC OR THERAPEUTIC USE” (3B Pharmaceuticals GmbH, priority 2024, dated 2025):
*1 amine or outer side, *2 acyl side, *3 side chain or, on linkers, in order; H or OH if unused. Where a SMILES comes first, the peptide text is derived from it. Bridges are numbered along the chain shown (N, C = ends). [ ]: non-standard residue; d: D form. The star is where a group is joined. DOTA = O=C(O)CN1CCN(CC(=O)O)CCN(CC(=O)*)CCN(CC(=O)O)CC1; X8 = O=C(CN(CC(=O)NC(CO)(CO)CO)CC(=O)*)NC(CO)(CO)CO; Phe(4-SO3H) = N[C@@H](Cc1ccc(S(=O)(=O)O)cc1)C(=O)O; Pro(trans-4-F) = O=C(O)[C@@H]1C[C@@H](F)CN1; Phe(2-Cl) = N[C@@H](Cc1ccccc1Cl)C(=O)O; cisHyp = O=C(O)[C@@H]1C[C@H](O)CN1; Hyp = O=C(O)[C@@H]1C[C@@H](O)CN1; 4Pal = N[C@@H](Cc1ccncc1)C(=O)O; Pentanoyl(4-Me) = CC(C)CCC(=O)*; Cit = NC(=O)NCCC[C@H](N)C(=O)O; Chg = N[C@H](C(=O)O)C1CCCCC1; Pen = CC(C)(S)[C@H](N)C(=O)O; hCys = N[C@@H](CCS)C(=O)O; Nle = CCCC[C@H](N)C(=O)O; Orn = NCCC[C@H](N)C(=O)O; dNMeA = CN[C@H](C)C(=O)O; Api = NC1(C(=O)O)CCNCC1; Nva = CCC[C@H](N)C(=O)O; Pentanoyl = CCCCC(=O)*; CO = O=C([*:1])[*:2]; CH2 = C([*:1])[*:2]; X7 = CCCOCC(=O)*; NHPr = CCCN*

Key:
human uPAR (uPAR-Fc) = biological target: T1, human uPAR (uPAR-Fc) (Homo sapiens, UniProt Q03405); assay: Surface plasmon resonance (SPR) assay, single cycle kinetics; type: binding; settings: pKD category for uPAR SPR activity assay; uPAR-Fc on Protein A-Chip, 25°C; read-out: pKD CAT (converted)
T1 construct: comprising amino acids Leu23-Arg303 according to UniProt entry Q03405.1; purchased R&D Systems 10378-UK-100
T1 sequence (Q03405 23-303): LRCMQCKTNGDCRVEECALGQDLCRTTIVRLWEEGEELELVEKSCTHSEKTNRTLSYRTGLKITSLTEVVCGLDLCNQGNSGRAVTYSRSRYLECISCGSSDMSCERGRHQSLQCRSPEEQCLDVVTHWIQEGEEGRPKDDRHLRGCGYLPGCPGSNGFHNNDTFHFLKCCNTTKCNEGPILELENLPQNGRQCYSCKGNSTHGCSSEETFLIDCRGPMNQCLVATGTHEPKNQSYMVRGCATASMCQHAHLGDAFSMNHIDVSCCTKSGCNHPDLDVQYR
Method in brief: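 uPAR-Fc (Leu23-Arg303 extracellular domains, human IgG1 Fc) captured on Protein A chip to ~2000 RU; single-cycle kinetics at 25°C in HEPES running buffer pH 7.4 with 0.1% DMSO. KD from double-referenced sensorgrams fitted to 1:1 Langmuir model, reported as pKD.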

[1] = biological target: T2, uPAR-expressing HEC-265 human endometrial adenocarcinoma cells (Homo sapiens, UniProt Q03405); assay: Competitive FACS binding assay; settings: pIC50 category of FACS binding
T2 construct: Cell surface uPAR-expressing HEC-265 human endometrial adenocarcinoma cells; host or cells: HEC-265
T2 sequence (Q03405 23-335): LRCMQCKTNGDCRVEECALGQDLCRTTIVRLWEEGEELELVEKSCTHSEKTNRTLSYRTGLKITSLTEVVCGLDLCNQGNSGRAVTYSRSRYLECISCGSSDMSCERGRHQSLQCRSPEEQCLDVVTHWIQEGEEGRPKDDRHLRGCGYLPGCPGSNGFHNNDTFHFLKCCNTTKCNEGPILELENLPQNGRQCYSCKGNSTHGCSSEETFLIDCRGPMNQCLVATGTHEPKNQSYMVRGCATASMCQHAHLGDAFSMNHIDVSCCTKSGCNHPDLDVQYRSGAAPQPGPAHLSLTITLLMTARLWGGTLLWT
Method in brief: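 HEC-265 cells incubated 1 h at 4 °C with 10 nM biotinylated uPAR peptide tracer plus increasing test compound, then stained with APC-streptavidin on ice. Median APC fluorescence by flow cytometry; 4PL fit gives pIC50.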

Kd (human uPAR (uPAR-Fc))	IC50 [1]	SMILES
1.58 to 10 nM	≤ 10 nM	CCCCC(=O)N[C@H]1CSSC[C@@H](C(N)=O)NC(=O)[C@H](CCC)NC(=O)[C@H]([C@@H](C)CC)NC(=O)[C@@H]2C[C@@H](O)CN2C(=O)[C@@H]2CCCN2C(=O)[C@H](Cc2ccccc2)NC(=O)[C@H](Cc2ccc(S(=O)(=O)O)cc2)NC(=O)[C@H](CCCCNC(=O)CN2CCN(CC(=O)O)CCN(CC(=O)O)CCN(CC(=O)O)CC2)NC(=O)[C@H](CCCNC(N)=O)NC1=O [UPAR-209, Pent-[Cys-Cit-Lys(DOTA)-Fso-Phe-Pro-Hyp-Ile-Nva-Cys]-NH2] (Pentanoyl-C[Cit]K(DOTA)[Phe(4-SO3H)]FP[Hyp]I[Nva]C-NH2; disulfide 1-10)
< 1.58 nM	≤ 10 nM	CCCNC(=O)N[C@H]1CSSC[C@@H](C(N)=O)NC(=O)[C@H](CCC)NC(=O)[C@H]([C@@H](C)CC)NC(=O)[C@@H]2C[C@@H](O)CN2C(=O)[C@@H]2CCCN2C(=O)[C@H](Cc2ccccc2)NC(=O)[C@H](Cc2ccc(O)cc2)NC(=O)[C@H](CCCCNC(=O)CN2CCN(CC(=O)O)CCN(CC(=O)O)CCN(CC(=O)O)CC2)NC(=O)[C@H](CCCNC(N)=O)NC1=O [UPAR-210, PrCAyl-[Cys-Cit-Lys(DOTA)-Tyr-Phe-Pro-Hyp-Ile-Nva-Cys]-NH2] ({NHPr-CO}-C[Cit]K(DOTA)YFP[Hyp]I[Nva]C-NH2; disulfide 1-10)
> 100 nM	≥ 126 nM	CCCCC(=O)N[C@H]1CSSC[C@@H](C(N)=O)NC(=O)[C@H](CCC)NC(=O)[C@H]([C@@H](C)CC)NC(=O)[C@@H]2C[C@@H](O)CN2C(=O)[C@@H](C)N(C)C(=O)[C@H](Cc2ccccc2)NC(=O)[C@H](Cc2ccc(O)cc2)NC(=O)[C@H](CCC(N)=O)NC(=O)[C@H](CCCNC(=N)N)NC1=O [UPAR-211, Pent-[Cys-Arg-Gln-Tyr-Phe-nma-Hyp-Ile-Nva-Cys]-NH2] (Pentanoyl-CRQYF[dNMeA][Hyp]I[Nva]C-NH2; disulfide 1-10)
10 to 100 nM	12.6 to 31.6 nM	CCCOCC(=O)N[C@H]1CSSC[C@@H](C(N)=O)NC(=O)[C@H](CC(C)C)NC(=O)[C@H]([C@@H](C)CC)NC(=O)[C@@H](C)NC(=O)[C@@H]2CCCN2C(=O)[C@H](Cc2ccccc2)NC(=O)[C@H](Cc2ccc(O)cc2)NC(=O)[C@H](CCC(N)=O)NC(=O)[C@H](CCCNC(N)=O)NC1=O [UPAR-212, PrOAc-[Cys-Cit-Gln-Tyr-Phe-Pro-ala-Ile-Leu-Cys]-NH2] (X7-C[Cit]QYFP[dA]ILC-NH2; disulfide 1-10)
1.58 to 10 nM	≤ 10 nM	CCCCC(=O)N[C@H]1CSSCC[C@@H](C(N)=O)NC(=O)[C@H](CCC)NC(=O)[C@H]([C@@H](C)CC)NC(=O)[C@@H]2C[C@@H](O)CN2C(=O)[C@@H]2CCCN2C(=O)[C@H](Cc2ccccc2)NC(=O)[C@H](Cc2ccc(O)cc2)NC(=O)[C@H](CCC(N)=O)NC(=O)[C@H](CCCNC(=N)N)NC1=O [UPAR-213, Pent-[Cys-Arg-Gln-Tyr-Phe-Pro-Hyp-Ile-Nva-Hcy]-NH2] (Pentanoyl-CRQYFP[Hyp]I[Nva][hCys]-NH2; disulfide 1-10)
< 1.58 nM	≤ 10 nM	CCCCC(=O)N[C@H]1CSSC[C@@H](C(N)=O)NC(=O)[C@H](CCC)NC(=O)[C@H]([C@@H](C)CC)NC(=O)[C@@H]2C[C@H](O)CN2C(=O)[C@@H]2CCCN2C(=O)[C@H](Cc2ccccc2)NC(=O)[C@H](Cc2ccc(O)cc2)NC(=O)[C@H](CCCCNC(=O)CN2CCN(CC(=O)O)CCN(CC(=O)O)CCN(CC(=O)O)CC2)NC(=O)[C@H](CCCNC(N)=O)NC1=O [UPAR-214, Pent-[Cys-Cit-Lys(DOTA)-Tyr-Phe-Pro-Chy-Ile-Nva-Cys]-NH2] (Pentanoyl-C[Cit]K(DOTA)YFP[cisHyp]I[Nva]C-NH2; disulfide 1-10)
1.58 to 10 nM	12.6 to 31.6 nM	CCCCC(=O)N[C@H]1CSCSC[C@@H](C(N)=O)NC(=O)[C@H](CCC)NC(=O)[C@H]([C@@H](C)CC)NC(=O)[C@@H]2C[C@@H](O)CN2C(=O)[C@@H]2CCCN2C(=O)[C@H](Cc2ccccc2)NC(=O)[C@H](Cc2ccc(O)cc2)NC(=O)[C@H](CCC(N)=O)NC(=O)[C@H](CCCNC(N)=O)NC1=O [UPAR-215, Pent-[Smc-Cit-Gln-Tyr-Phe-Pro-Hyp-Ile-Nva-Cys]-NH2] (Pentanoyl-C[Cit]QYFP[Hyp]I[Nva]C-NH2; linker 1-10 via CH2)
1.58 to 10 nM	≤ 10 nM	CCCCC(=O)N[C@H]1CSSC(C)(C)[C@@H](C(N)=O)NC(=O)[C@H](CCC)NC(=O)[C@H]([C@@H](C)CC)NC(=O)[C@@H]2C[C@@H](O)CN2C(=O)[C@@H]2CCCN2C(=O)[C@H](Cc2ccccc2)NC(=O)[C@H](Cc2ccc(O)cc2)NC(=O)[C@H](CCC(N)=O)NC(=O)[C@H](CCCNC(N)=O)NC1=O [UPAR-217, Pent-[Cys-Cit-Gln-Tyr-Phe-Pro-Hyp-Ile-Nva-Pen]-NH2] (Pentanoyl-C[Cit]QYFP[Hyp]I[Nva][Pen]-NH2; disulfide 1-10)
> 100 nM	≥ 126 nM	CCCC[C@@H]1NC(=O)[C@H](CCCNC(=N)N)NC(=O)[C@@H](NC(=O)[C@H](CC(C)C)NC(=O)[C@H](CC(=O)O)NC(C)=O)CSSC[C@@H](C(N)=O)NC(=O)[C@H](CC(C)C)NC(=O)[C@H]([C@@H](C)CC)NC(=O)[C@H](C)NC(=O)[C@H]2CCCN2C(=O)[C@H](Cc2ccccc2)NC(=O)[C@H](Cc2ccc(O)cc2)NC1=O [UPAR-218, Ac-Asp-Leu-[Cys-Arg-Nle-Tyr-Phe-pro-Ala-Ile-Leu-Cys]-NH2] (Ac-DLCR[Nle]YF[dP]AILC-NH2; disulfide 3-12)
1.58 to 10 nM	≤ 10 nM	CC[C@H](C)[C@@H]1NC(=O)C2(CCN(C(=O)CN3CCN(CC(=O)O)CCN(CC(=O)O)CCN(CC(=O)O)CC3)CC2)NC(=O)[C@@H]2CCCN2C(=O)[C@H](Cc2ccccc2)NC(=O)[C@H](Cc2ccc(O)cc2)NC(=O)[C@H](CCC(N)=O)NC(=O)[C@H](CCCNC(N)=O)NC(=O)[C@@H](NC(=O)CCC(C)C)CSSC[C@@H](C(N)=O)NC(=O)[C@H](CC(C)C)NC1=O [UPAR-219, iHex-[Cys-Cit-Gln-Tyr-Phe-Pro-Apc(DOTA)-Ile-Leu-Cys]-NH2] ({Pentanoyl(4-Me)}-C[Cit]QYFP[Api](DOTA)ILC-NH2; disulfide 1-10)
< 1.58 nM	≤ 10 nM	CC[C@H](C)[C@@H]1NC(=O)[C@@H]2C[C@@H](F)CN2C(=O)[C@@H]2CCCN2C(=O)[C@H](Cc2ccccc2)NC(=O)[C@H](Cc2ccc(O)cc2)NC(=O)[C@H](CCC(N)=O)NC(=O)[C@H](CCCNC(N)=O)NC(=O)[C@@H](NC(=O)CCC(C)C)CSSC[C@@H](C(N)=O)NC(=O)[C@H](CC(C)C)NC1=O [UPAR-220, iHex-[Cys-Cit-Gln-Tyr-Phe-Pro-4Tfp-Ile-Leu-Cys]-NH2] ({Pentanoyl(4-Me)}-C[Cit]QYFP[Pro(trans-4-F)]ILC-NH2; disulfide 1-10)
< 1.58 nM	≤ 10 nM	CC[C@H](C)[C@@H]1NC(=O)[C@@H](C)NC(=O)[C@@H]2CCCN2C(=O)[C@H](Cc2ccccc2Cl)NC(=O)[C@H](Cc2ccc(O)cc2)NC(=O)[C@H](CCC(N)=O)NC(=O)[C@H](CCCNC(N)=O)NC(=O)[C@@H](NC(=O)CCC(C)C)CSSC[C@@H](C(N)=O)NC(=O)[C@H](CC(C)C)NC1=O [UPAR-221, iHex-[Cys-Cit-Gln-Tyr-Ocf-Pro-ala-Ile-Leu-Cys]-NH2] ({Pentanoyl(4-Me)}-C[Cit]QY[Phe(2-Cl)]P[dA]ILC-NH2; disulfide 1-10)
1.58 to 10 nM	≤ 10 nM	CCCCC(=O)N[C@H]1CSSC[C@@H](C(N)=O)NC(=O)[C@H](CCC)NC(=O)[C@H]([C@@H](C)CC)NC(=O)[C@@H]2C[C@@H](O)CN2C(=O)[C@@H]2CCCN2C(=O)[C@H](Cc2ccncc2)NC(=O)[C@H](Cc2ccc(O)cc2)NC(=O)[C@H](CCCCNC(=O)CN2CCN(CC(=O)O)CCN(CC(=O)O)CCN(CC(=O)O)CC2)NC(=O)[C@H](CCCNC(N)=O)NC1=O [UPAR-222, Pent-[Cys-Cit-Lys(DOTA)-Tyr-Ppa-Pro-Hyp-Ile-Nva-Cys]-NH2] (Pentanoyl-C[Cit]K(DOTA)Y[4Pal]P[Hyp]I[Nva]C-NH2; disulfide 1-10)
10 to 100 nM	39.8 to 100 nM	CCC[C@@H]1NC(=O)[C@H]([C@@H](C)CC)NC(=O)[C@@H]2C[C@@H](O)CN2C(=O)[C@@H]2CCCN2C(=O)[C@H](Cc2ccccc2)NC(=O)[C@H](Cc2ccc(O)cc2)NC(=O)[C@H](CCC(N)=O)NC(=O)[C@H](CCCNC(=N)N)NC(=O)[C@@H](NC(=O)[C@H](Cc2ccccc2)NC(=O)CN2CCN(CC(=O)O)CCN(CC(=O)O)CCN(CC(=O)O)CC2)CSSC[C@@H](C(N)=O)NC1=O [UPAR-223, DOTA-Phe-[Cys-Arg-Gln-Tyr-Phe-Pro-Hyp-Ile-Nva-Cys]-NH2] ({DOTA}-FCRQYFP[Hyp]I[Nva]C-NH2; disulfide 2-11)
< 1.58 nM	≤ 10 nM	CCCCC(=O)N[C@H]1CSSC[C@@H](C(N)=O)NC(=O)[C@H](CCC)NC(=O)[C@H]([C@@H](C)CC)NC(=O)[C@@H]2C[C@@H](O)CN2C(=O)[C@@H]2CCCN2C(=O)[C@H](Cc2ccccc2)NC(=O)[C@H](Cc2ccc(O)cc2)NC(=O)[C@H](CCCCNC(=O)CN2CCN(CC(=O)O)CCN(CC(=O)O)CCN(CC(=O)O)CC2)NC(=O)[C@H](CCCNC(=O)CN(CC(=O)NC(CO)(CO)CO)CC(=O)NC(CO)(CO)CO)NC1=O [UPAR-224, Pent-[Cys-Orn(Tris-Nta(Tris))-Lys(DOTA)-Tyr-Phe-Pro-Hyp-Ile-Nva-Cys]-NH2] (Pentanoyl-C[Orn](X8)K(DOTA)YFP[Hyp]I[Nva]C-NH2; disulfide 1-10)
< 1.58 nM	≤ 10 nM	CC(C)CCC(=O)N[C@H]1CSSC[C@@H](C(N)=O)NC(=O)[C@H](CC(C)C)NC(=O)[C@H](C2CCCCC2)NC(=O)[C@@H](C)NC(=O)[C@@H]2CCCN2C(=O)[C@H](Cc2ccccc2)NC(=O)[C@H](Cc2ccc(O)cc2)NC(=O)[C@H](CCC(N)=O)NC(=O)[C@H](CCCNC(N)=O)NC1=O [UPAR-225, iHex-[Cys-Cit-Gln-Tyr-Phe-Pro-ala-Chg-Leu-Cys]-NH2] ({Pentanoyl(4-Me)}-C[Cit]QYFP[dA][Chg]LC-NH2; disulfide 1-10)
